Key:
rat beta cells [1] = assay: Beta cell DNA synthesis/proliferation by EdU (and BrdU) incorporation, incl. LOPAC screen; assay type: cell-based; conditions: for effect on 6MP induced DNA-synthesis and increase in cell numbers: JSH-23 10 μM, Bay11-7085 5 μM
Method: (§1) On day 1, 9 and 15 of culture, total numbers of living beta cells per well were determined by semi-automatic cell count, after Hoechst 33342 (Ho) and propidium iodide (PI) staining. Numbers of living beta cells were obtained by subtracting the PI-positive cell numbers from the Ho-positive cell numbers, and correcting for the percent insulin-negative cells, as determined following insulin-immunofluorescence staining. They were expressed as percent of the numbers on day 1. Each condition was also evaluated for increases in the percentage of proliferating beta cells (incorporating the thymidine-analogue 5-ethynyl-2′-deoxyuridine, EdU; 100 μmol/l). To detect beta cells that underwent two successive cycles, cells were sequentially exposed to two different thymidine-analogs, first EdU from day 3 to 6, and then BrdU (100 μmol/l) from day 7 to 10, with a 24-hour label-free period in between. EdU-positive (EdU^+) nuclei were detected with the Click-iT Assay kit (Invitrogen), while BrdU-positive (BrdU^+) nuclei were identified with anti-BrdU antibody.
Freshly purified beta cells were cultured in control medium for 24 h prior to the addition of the LOPAC test compounds (day 1). The culture medium was refreshed on day 3 and the cells were then cultured further with 5-ethynyl-2′-deoxyuridine (EdU; 10 μM) up to day 6. Cell viability and percentage EdU incorporation were quantified after imaging and image analysis using the BD Pathway Bioimager, as described before (Assefa et al., 2014). To test the significance of compound effect on beta cell proliferation, average Z-score for each compound was calculated and a cut-off for potential positive hits was set at a Z-score of greater than three standard deviations. Thus, a compound is considered a hit only if it increases the percent EdU incorporation to above three standard deviation of the plate-averaged percent EdU incorporation.
(§2) Sorted beta cells were seeded in 384-well or 6-well plates coated with 804G matrix, and kept in culture for up to 15 days at 37° C. 5% CO2 using Ham F10 supplemented with 1 mM L-glutamine, 0.1 mg/ml streptomycin, 0.075 mg/ml penicillin, 50 μM of isobutyl-1-methylxanthine (IBMX) at 10 mM D-glucose with and without synthetic GCs (6 methyl-prednisolone (6MP), dexamethasone (DEX), GR-modulators (compound A (CPA), mifepristone (MIF), and NFκB inhibitors (JSH-23 en Bay11-7085). Total cell number and beta cell viability was evaluated after incubation with Hoechst 33342 and propidium iodide. All chemicals were from Sigma Life Sciences or Merck. Quantification of cell numbers and analysis of beta-cell viability was done using the Pathway Bioimager (BD Biosciences) and using IPlab and Attovision software for background subtraction as described prior (Assefa et al., 2014). Replicating beta cells were quantified after 24 or 72 hrs incubation with 5-ethynyl-2′-deoxyuridine (EdU, a thymidine analog) using the ClickIT EDU Alexa Fluor assay (Invitrogen). EdU-positive cells were expressed as percentage of total cell number.

rat beta cells [2] = assay: Number of living beta cells in culture (Hoechst 33342/propidium iodide whole-well imaging counts; expansion assay); assay type: cell-based; conditions: for Number of Living Cells on Day 15 (% of Day 1): control 101 ± 7; for concentration giving maximal inhibition / prevention of DEX-stimulated increase of beta cell numbers: with 0.01 μM DEX, d1 to d15
Method: Beta cells were FACS-purified from islet-cell enriched suspensions (Pipeleers et al., 1985) prepared from neonatal (2-3 days-old) and adolescent or adult (8 or 40-week-old, male) Wistar rats (Janvier Bioservices, France); their purity was, respectively 70-75% and over 90%. Sorted cells were counted in a hemocytometer, seeded (day 0) and cultured for up to 15 days in serum-free Ham's-F10 medium at 5, 10 or 20 mmol/l glucose, supplemented with 2 mmol/l L-glutamine, 50 μM 3-isobutyl-1-methylxanthine, 0.5% Albumax-I, penicillin (100 U/ml) and streptomycin (0.1 mg/ml). The 10 mmol/l glucose condition is known to maintain beta cell survival over 9-days (Ling et al., 1994; Ling and Pipeleers, 1994). Medium and cells were retrieved after selected culture periods and assayed for insulin content; data were expressed as a function of the number of living beta cells that was determined in parallel wells.
as §1
Absolute number of cells was determined by whole-well imaging using the BD-PathwayBioimager855 (BD-Biosciences). IPLab and AttoVision software packages (BD-Biosciences) were used for image background subtraction, segmentation and quantification.
Experimental procedures for isolation of beta cells from neonatal (2-3 days old) and adult (8 or 40 week old, male) Wistar rats (Janvier Bioservices, France) and analysis of their number, viability and proliferation activity in culture have been described before (Assefa et al., 2014). Sorted beta cells were seeded in 804G matrix-coated plates (designated as day 0) and the numbers and viability of seeded cells at the start of all experiments were determined on day 1 (24 h after seeding). The cells were cultured in control medium, which is a serum-free Ham's F10 medium supplemented with 2 mM L-glutamine, 50 μM 3-isobutyl-1-methylxanthine, 0.5% Albumax I, penicillin (100 U/ml), streptomycin (0.1 mg/ml) and, unless indicated otherwise, 10 mM glucose.
as §2, with “2014).” for “2014). Replicating beta cells were quantified after 24 or 72 hrs incubation with 5-ethynyl-2′-deoxyuridine (EdU, a thymidine analog) using the ClickIT EDU Alexa Fluor assay (Invitrogen). EdU-positive cells were expressed as percentage of total cell number.”

[3] = test system: GR trans-repression and trans-activation targets, cell cycle genes and beta cell phenotype markers; assay: Q-PCR of mRNA levels in cultured beta cells; assay type: cell-based, rat; conditions: for effect on ICAM1 mRNA levels: NFkB-inhibitors, relative to vehicle control
[4] = 9 days culture, 1 μM 6MP, 1 μM MIF, 0.5 μM CPA, vehicle = 1.0
[5] = control medium + compound 1 μM, 15 days

COC(=O)C1=C(C)NC(C)=C([N+](=O)[O-])C1c1ccccc1C(F)(F)F (racemic) [(±)-Bay K 8644]
hit status in LOPAC screen based on Z-scores (rat beta cells [1]; 1 μM, adult rat beta cells): potential inducers of beta cell proliferation

C[C@]12CCC(=O)C=C1CC[C@@H]1[C@@H]2[C@@H](O)C[C@]2(C=O)[C@@H](C(=O)CO)CC[C@@H]12 [Aldosterone, aldosterone]
Number of Living Cells on Day 15 (% of Day 1) (rat beta cells [2]; control medium + compound 0.1 μM, 15 days): 112 ± 5 % of Day 1

CC(C)(C)c1ccc(S(=O)(=O)/C=C/C#N)cc1 [Bay11-7085]
effect on 6MP induced DNA-synthesis and increase in cell numbers (rat beta cells [1]): does not inhibit
effect on ICAM1 mRNA levels [3]: suppressing

CNCC(Cl)c1ccc(OC(C)=O)cc1.Cl (stereo not drawn) [CPA]
CDK4 mRNA level (ΔΔCt values relative to basal vehicle control) [3, 4]: 1.1 ± 0.2
CXCL11 mRNA level (ΔΔCt values relative to basal vehicle control) [3, 4]: 1.1 ± 0.3
Cyclin B1 mRNA level (ΔΔCt values relative to basal vehicle control) [3, 4]: 0.8 ± 0.4
Cyclin B2 mRNA level (ΔΔCt values relative to basal vehicle control) [3, 4]: 0.5 ± 0.1^2
Cyclin E1 mRNA level (ΔΔCt values relative to basal vehicle control) [3, 4]: 1.0 ± 0.1
CyclinD1 mRNA level (ΔΔCt values relative to basal vehicle control) [3, 4]: 0.7 ± 0.1^1
DLK1 mRNA level (ΔΔCt values relative to basal vehicle control) [3, 4]: 1.4 ± 0.4
FKBP4 mRNA level (ΔΔCt values relative to basal vehicle control) [3, 4]: 0.9 ± 0.2
FKBP5 mRNA level (ΔΔCt values relative to basal vehicle control) [3, 4]: 1.3 ± 0.1
GDF11 mRNA level (ΔΔCt values relative to basal vehicle control) [3, 4]: 0.7 ± 0.1
ICAM1 mRNA level (ΔΔCt values relative to basal vehicle control) [3, 4]: 0.3 ± 0.1^3
MKP1 mRNA level (ΔΔCt values relative to basal vehicle control) [3, 4]: 2.7 ± 1.1
MafA mRNA level (ΔΔCt values relative to basal vehicle control) [3, 4]: 0.4 ± 0.1^3
MafB mRNA level (ΔΔCt values relative to basal vehicle control) [3, 4]: 1.4 ± 0.5
NNAT mRNA level (ΔΔCt values relative to basal vehicle control) [3, 4]: 0.6 ± 0.1
NPY mRNA level (ΔΔCt values relative to basal vehicle control) [3, 4]: 1.1 ± 0.3
NR3C1 mRNA level (ΔΔCt values relative to basal vehicle control) [3, 4]: 1.0 ± 0.1
Pdx1 mRNA level (ΔΔCt values relative to basal vehicle control) [3, 4]: 0.8 ± 0.1
TRH mRNA level (ΔΔCt values relative to basal vehicle control) [3, 4]: 1.2 ± 0.6
change of beta cell numbers between day 1 and 15 (rat beta cells [2]; 6MP 1 μM, DEX 0.01 μM, CPA 0.5 μM): no change of beta cell numbers
concentration giving maximal inhibition / prevention of DEX-stimulated increase of beta cell numbers (rat beta cells [2]): 0.5 µM

Cc1ccc(NCCCc2ccccc2)c(N)c1 [JSH-23]
effect on 6MP induced DNA-synthesis and increase in cell numbers (rat beta cells [1]): does not inhibit
effect on ICAM1 mRNA levels [3]: suppressing

CC#C[C@]1(O)CC[C@H]2[C@@H]3CCC4=CC(=O)CCC4=C3[C@@H](c3ccc(N(C)C)cc3)C[C@@]21C [MIF, mifepristone]
CDK4 mRNA level (ΔΔCt values relative to basal vehicle control) [3, 4]: 1.3 ± 0.2
CXCL11 mRNA level (ΔΔCt values relative to basal vehicle control) [3, 4]: 1.5 ± 0.6
Cyclin B1 mRNA level (ΔΔCt values relative to basal vehicle control) [3, 4]: 1.0 ± 0.3
Cyclin B2 mRNA level (ΔΔCt values relative to basal vehicle control) [3, 4]: 0.6 ± 0.1^1
CyclinD1 mRNA level (ΔΔCt values relative to basal vehicle control) [3, 4]: 1.0 ± 0.1
DLK1 mRNA level (ΔΔCt values relative to basal vehicle control) [3, 4]: 0.9 ± 0.2
FKBP4 mRNA level (ΔΔCt values relative to basal vehicle control) [3, 4]: 0.7 ± 0.2
FKBP5 mRNA level (ΔΔCt values relative to basal vehicle control) [3, 4]: 0.7 ± 0.2
MKP1 mRNA level (ΔΔCt values relative to basal vehicle control) [3, 4]: 1.3 ± 0.0
MafA mRNA level (ΔΔCt values relative to basal vehicle control) [3, 4]: 1.1 ± 0.3
MafB mRNA level (ΔΔCt values relative to basal vehicle control) [3, 4]: 0.6 ± 0.2
NPY mRNA level (ΔΔCt values relative to basal vehicle control) [3, 4]: 0.8 ± 0.0
NR3C1 mRNA level (ΔΔCt values relative to basal vehicle control) [3, 4]: 1.1 ± 0.1
Pdx1 mRNA level (ΔΔCt values relative to basal vehicle control) [3, 4]: 1.1 ± 0.3
effect on 6MP/DEX-stimulated increase of cell numbers (rat beta cells [2]; MIF 1 μM): inhibited
Number of Living Cells on Day 15 (% of Day 1) (rat beta cells [2]; [5]): 104 ± 5 % of Day 1
concentration giving maximal inhibition / prevention of DEX-stimulated increase of beta cell numbers (rat beta cells [2]): 0.1 µM

CC(=O)S[C@@H]1CC2=CC(=O)CC[C@]2(C)[C@H]2CC[C@@]3(C)[C@@H](CC[C@@]34CCC(=O)O4)[C@H]12 [Spironolactone, spironolactone]
Number of Living Cells on Day 15 (% of Day 1) (rat beta cells [2]; [5]): 105 ± 5 % of Day 1

O=C(CO)[C@@H](O)[C@@H](O)[C@H](O)[C@H](O)CO [mannoheptulose]
baseline and GC-induced proliferation of beta cells (rat beta cells [1]; competitive inhibition of GK, data not shown): reduces

B1: GDF11: secretory factor added to beta cell culture (10 nM) (protein, UniProt O95390 299-407, looked up)
Growth/differentiation factor …: NLGLDCDEHSSESRCCRYPLTVDFEAFGWDWIIAPKRYKANYCSGQCEYMFMQKYPHTHLVQQANPRGSAGPCCTPTKMSPINMLYFNDKQQIIYGKIPGMVVDRCGCS
effect on cell numbers in combination with 6MP (rat beta cells [2]; 15 days, 6MP 1 μM, GDF11 10 nM, TRH 5 nM): suppressed proliferation
effect on cell numbers under basal conditions (rat beta cells [2]; 15 days, DLK1 0.5 μM, GDF11 10 nM, TRH 5 nM): modest increase of cell numbers
